These results are taken from publication PMC6862080, “Blood Compatibility—An Important but Often Forgotten Aspect of the Characterization of Antimicrobial Peptides for Clinical Application” (International Journal of Molecular Sciences, 2019).

Peptide text beside a SMILES is read from it. * marks the point of attachment. Decanoyl = CCCCCCCCCC(=O)*; Octanoyl = CCCCCCCC(=O)* Some results are limits rather than exact numbers.

One data set relates to S. aureus (ATCC 12600). The data set is described as follows: microbe, parasite or virus in culture. Type of data set: cell-based. The note with it: ATCC 12600, pH 7.4.
In data set [1] the test system is erythrocyte membranes. Nature of the data set: Hemolysis in whole blood (Kahn method). Type of data set: cell-based, human. On the procedure: (§1) Hemolysis was tested with fresh citrate anticoagulated blood from healthy volunteers as well as with blood cells which were suspended in phosphate buffered saline (10 mM pH 7.4). Afterwards, 100 μL AMP solution was added to 500 μL blood to finally achieve AMP concentrations of 8, 32, and 128 μg/mL. As the negative and positive control, 100 μL PBS buffer and 100 μL 12% Triton-X buffer was added to 500 μL blood, respectively. After incubation on an orbital shaker for 60 min at 37 °C, the cells were removed by centrifugation and 100 μL of the supernatant were transferred to a 96 well microplate for hemolysis measurement. The hemolysis was calculated from the extinction at the wavelengths 562, 578, and 598 nm with a Synergy 2 microplate reader (BioTek, Winooski, VT, USA) according to the method published by Kahn.

The next data set concerns E. coli (ATCC 11303). Nature of the data set: microbe, parasite or virus in culture. In kind it is cell-based. The note with it: ATCC 11303, pH 7.4.
The subject of data set [2] is erythrocyte membranes. The data set is described as follows: Hemolysis in RBC suspended in PBS (Kahn method). Conditions: pH 7.4. In kind it is cell-based, human. The method, then:
as §1

As to `CCCCCCCC(=O)N[C@@H](Cc1ccccc1)C(=O)N[C@@H](Cc1c[nH]c2ccccc12)C(=O)N[C@@H](CCCNC(=N)N)C(=O)N[C@@H](CCCNC(=N)N)C(=O)N[C@@H](Cc1ccccc1)C(=O)N[C@@H](Cc1c[nH]c2ccccc12)C(=O)N[C@@H](CCCNC(=N)N)C(=O)N[C@@H](CCCNC(=N)N)C(N)=O` [LF11-227-C8] (Octanoyl-FWRRFWRR-NH2), the “Minimal Inhibitory Concentration, S. aureus, PBS” value with S. aureus (ATCC 12600) was > 128 µg/mL. In the data set with erythrocyte membranes [1], the “Free Hemoglobin, BLOOD, 8 μg/mL” value stood at 3.6 ± 2.8 mg/dL; the “Free Hemoglobin, BLOOD, 32 μg/mL” value is 10.5 ± 13.5 mg/dL; the “Free Hemoglobin, BLOOD, 128 μg/mL” value is listed as 2.3 ± 3.7 mg/dL. Moreover, the “Minimal Inhibitory Concentration, E. coli, PBS” value with E. coli (ATCC 11303) is > 128 µg/mL. In the data set on erythrocyte membranes [2], the “Free Hemoglobin, RBC in PBS, 8 μg/mL” value is 13.0 ± 0.7 mg/dL and the “Free Hemoglobin, RBC in PBS, 32 μg/mL” value worked out at 15.9 ± 2.6 mg/dL.
Consider `CCCCCCCCCC(=O)N[C@@H](Cc1ccccc1)C(=O)N[C@@H](Cc1c[nH]c2ccccc12)C(=O)N[C@@H](CCCNC(=N)N)C(=O)N[C@@H](CCCNC(=N)N)C(=O)N[C@@H](Cc1ccccc1)C(=O)N[C@@H](Cc1c[nH]c2ccccc12)C(=O)N[C@@H](CCCNC(=N)N)C(=O)N[C@@H](CCCNC(=N)N)C(N)=O` [LF11-227-C10] (Decanoyl-FWRRFWRR-NH2), for which, in the data set with S. aureus (ATCC 12600), the “Minimal Inhibitory Concentration, S. aureus, PBS” value was > 128 µg/mL. Besides, in the data set on erythrocyte membranes [1], the “Free Hemoglobin, BLOOD, 8 μg/mL” value is recorded as 2.3 ± 0.6 mg/dL; the “Free Hemoglobin, BLOOD, 32 μg/mL” value was determined as 4.2 ± 1.4 mg/dL; the “Free Hemoglobin, BLOOD, 128 μg/mL” value is reported as 2.7 ± 4.2 mg/dL. In addition, in the data set on E. coli (ATCC 11303), the “Minimal Inhibitory Concentration, E. coli, PBS” value was > 128 µg/mL. Also, in the data set with erythrocyte membranes [2], the “Free Hemoglobin, RBC in PBS, 8 μg/mL” value is 18.0 ± 6.7 mg/dL and the “Free Hemoglobin, RBC in PBS, 32 μg/mL” value was 45.1 ± 20.5 mg/dL.
As to `CCCCCCCCCC(=O)N1CCC[C@H]1C(=O)N[C@@H](Cc1ccccc1)C(=O)N[C@@H](Cc1c[nH]c2ccccc12)C(=O)N[C@@H](CCCNC(=N)N)C(=O)N[C@H](C(=O)N[C@@H](CCCNC(=N)N)C(=O)N[C@H](C(=O)N[C@@H](CCCNC(=N)N)C(=O)N[C@@H](CCCNC(=N)N)C(N)=O)[C@@H](C)CC)[C@@H](C)CC` [LF11-322-C10] (Decanoyl-PFWRIRIRR-NH2), in the data set on S. aureus (ATCC 12600), the “Minimal Inhibitory Concentration, S. aureus, PBS” value was found to be 8 µg/mL. In addition, in the data set with erythrocyte membranes [1], the “Free Hemoglobin, BLOOD, 8 μg/mL” value was found to be 2.5 ± 2.0 mg/dL; the “Free Hemoglobin, BLOOD, 32 μg/mL” value was 6.0 ± 4.6 mg/dL; the “Free Hemoglobin, BLOOD, 128 μg/mL” value is 3.0 ± 4.5 mg/dL. Also, in the data set with E. coli (ATCC 11303), the “Minimal Inhibitory Concentration, E. coli, PBS” value was determined as 8 µg/mL. Also, in the data set with erythrocyte membranes [2], the “Free Hemoglobin, RBC in PBS, 8 μg/mL” value worked out at 16.6 ± 2.4 mg/dL and the “Free Hemoglobin, RBC in PBS, 32 μg/mL” value turned out to be 48.5 ± 5.5 mg/dL.
Turning to H-FWRRFWRR-NH2 [LF11-227-NH2], in the data set with S. aureus (ATCC 12600), the “Minimal Inhibitory Concentration, S. aureus, PBS” value was 8 µg/mL. In the data set with erythrocyte membranes [1], the “Free Hemoglobin, BLOOD, 8 μg/mL” value was determined as 2.4 ± 3.1 mg/dL; the “Free Hemoglobin, BLOOD, 32 μg/mL” value is on record as 9.5 ± 12.3 mg/dL; the “Free Hemoglobin, BLOOD, 128 μg/mL” value is 2.5 ± 3.8 mg/dL. Moreover, in the data set with E. coli (ATCC 11303), the “Minimal Inhibitory Concentration, E. coli, PBS” value was found to be 8 µg/mL. Moreover, in the data set on erythrocyte membranes [2], the “Free Hemoglobin, RBC in PBS, 8 μg/mL” value came to 10.0 ± 2.2 mg/dL and the “Free Hemoglobin, RBC in PBS, 32 μg/mL” value is reported as 14.6 ± 3.2 mg/dL.
